Laboratory results taken from patent US20240139211A1, “METHODS AND COMPOSITIONS FOR TREATING AMYOTROPHIC LATERAL SCLEROSIS” (Amylyx Pharmaceuticals, Inc., priority 2022, published 2024).
Where two headings read alike, the source gives them in different places.

Assays:
[1] = target: T1, OATP1B1 (Homo sapiens, UniProt Q9Y6L6); assay: Substrate of OATP1B1, uptake in HEK293 cells
Source text: (§1) Vector-transfected HEK cells were used as a control.

[2] = system: Caco-2 cells; details: for Permeability in Caco-2 cell assay: 1 and 10 μM (tauroursodeoxycholic acid: 10 μM)
[3] = in vitro; details: human, Caco-2
[4] = target: BSEP (Homo sapiens, UniProt O95342); assay: Substrate of BSEP; details: test article 1 and 10 μM
Sequence of BSEP (O95342 whole entry): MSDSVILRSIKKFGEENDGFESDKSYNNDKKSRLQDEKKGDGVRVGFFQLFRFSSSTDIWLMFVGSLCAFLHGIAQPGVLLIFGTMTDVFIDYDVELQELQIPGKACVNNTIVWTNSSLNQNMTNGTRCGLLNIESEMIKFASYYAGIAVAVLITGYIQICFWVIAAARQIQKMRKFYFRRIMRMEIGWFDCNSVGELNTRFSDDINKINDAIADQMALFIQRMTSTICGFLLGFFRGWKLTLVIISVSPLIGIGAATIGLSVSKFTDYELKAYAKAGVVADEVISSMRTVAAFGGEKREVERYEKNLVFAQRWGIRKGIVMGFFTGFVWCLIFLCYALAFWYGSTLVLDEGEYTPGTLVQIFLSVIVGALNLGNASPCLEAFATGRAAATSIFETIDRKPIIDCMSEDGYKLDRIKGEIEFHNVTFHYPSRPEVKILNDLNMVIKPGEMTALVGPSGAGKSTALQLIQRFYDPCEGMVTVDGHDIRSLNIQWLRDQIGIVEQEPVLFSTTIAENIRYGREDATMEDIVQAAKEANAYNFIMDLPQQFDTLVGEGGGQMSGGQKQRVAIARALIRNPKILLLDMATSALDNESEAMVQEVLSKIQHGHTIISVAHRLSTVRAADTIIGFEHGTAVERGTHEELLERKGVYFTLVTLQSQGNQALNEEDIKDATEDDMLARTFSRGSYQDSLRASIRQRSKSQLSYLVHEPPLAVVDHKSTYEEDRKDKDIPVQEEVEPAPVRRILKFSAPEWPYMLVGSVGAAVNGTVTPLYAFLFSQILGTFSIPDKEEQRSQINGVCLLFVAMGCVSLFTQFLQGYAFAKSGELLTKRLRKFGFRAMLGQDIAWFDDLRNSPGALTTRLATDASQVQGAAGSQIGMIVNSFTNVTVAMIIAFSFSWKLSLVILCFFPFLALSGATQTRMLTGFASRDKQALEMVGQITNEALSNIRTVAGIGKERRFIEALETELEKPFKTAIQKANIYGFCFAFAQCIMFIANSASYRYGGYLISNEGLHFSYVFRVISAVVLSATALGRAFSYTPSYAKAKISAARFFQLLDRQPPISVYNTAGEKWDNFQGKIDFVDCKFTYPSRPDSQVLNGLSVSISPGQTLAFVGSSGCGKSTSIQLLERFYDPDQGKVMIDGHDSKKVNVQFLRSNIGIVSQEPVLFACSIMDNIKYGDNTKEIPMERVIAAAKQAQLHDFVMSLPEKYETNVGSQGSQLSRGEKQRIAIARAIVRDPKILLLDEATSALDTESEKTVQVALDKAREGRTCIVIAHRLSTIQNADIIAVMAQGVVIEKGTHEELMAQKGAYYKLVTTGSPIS

[5] = target: T2, OAT3 (Homo sapiens, UniProt Q8TCC7); assay: Inhibitor of OAT3, probe substrate uptake; details: for potency estimated from few doses: read-out: Estimated IC50, OAT3; for Inhibition of OAT3 / Inhibitor of OAT3: two concentrations per test article
T2 sequence (Q8TCC7 1-542): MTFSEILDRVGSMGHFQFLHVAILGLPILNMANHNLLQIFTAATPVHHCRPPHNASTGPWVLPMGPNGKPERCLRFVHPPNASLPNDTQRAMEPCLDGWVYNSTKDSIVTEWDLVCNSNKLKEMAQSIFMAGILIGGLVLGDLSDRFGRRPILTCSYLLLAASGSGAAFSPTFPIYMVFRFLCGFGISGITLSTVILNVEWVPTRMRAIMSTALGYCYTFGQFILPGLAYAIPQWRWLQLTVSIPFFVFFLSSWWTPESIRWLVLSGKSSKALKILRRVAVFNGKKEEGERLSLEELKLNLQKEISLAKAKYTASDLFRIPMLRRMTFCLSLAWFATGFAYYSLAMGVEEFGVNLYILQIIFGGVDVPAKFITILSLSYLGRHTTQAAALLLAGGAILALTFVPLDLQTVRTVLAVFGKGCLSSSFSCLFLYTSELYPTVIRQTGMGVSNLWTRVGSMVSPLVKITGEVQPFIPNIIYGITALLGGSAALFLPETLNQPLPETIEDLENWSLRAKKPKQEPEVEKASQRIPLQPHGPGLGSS

[6] = target: T3, OCT1 (Homo sapiens, UniProt O15245); assay: Inhibitor of OCT1, probe substrate uptake; details: for Inhibition of OCT1 / Inhibitor of OCT1: two concentrations per test article; for potency estimated from few doses: read-out: Estimated IC50, OCT1
T3 sequence (O15245 1-554): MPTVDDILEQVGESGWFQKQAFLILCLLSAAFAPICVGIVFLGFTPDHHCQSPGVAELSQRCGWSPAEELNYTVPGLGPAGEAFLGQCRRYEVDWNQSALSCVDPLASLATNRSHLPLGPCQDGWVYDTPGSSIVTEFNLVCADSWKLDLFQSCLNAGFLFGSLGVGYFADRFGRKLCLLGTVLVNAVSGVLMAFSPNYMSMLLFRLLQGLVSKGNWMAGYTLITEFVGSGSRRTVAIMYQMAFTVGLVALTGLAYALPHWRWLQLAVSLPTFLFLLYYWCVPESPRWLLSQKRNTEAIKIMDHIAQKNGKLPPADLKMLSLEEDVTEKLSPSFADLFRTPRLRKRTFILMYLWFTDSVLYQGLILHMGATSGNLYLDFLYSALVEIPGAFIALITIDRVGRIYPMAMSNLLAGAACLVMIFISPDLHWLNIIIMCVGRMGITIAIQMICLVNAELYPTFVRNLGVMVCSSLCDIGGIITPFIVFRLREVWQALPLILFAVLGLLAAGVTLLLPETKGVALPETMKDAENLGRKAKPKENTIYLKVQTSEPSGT

[7] = target: T1, OATP1B1; assay: Inhibitor of OATP1B1, probe substrate uptake; details: for Inhibition of OATP1B1 / Inhibitor of OATP1B1: two concentrations per test article; for potency estimated from few doses: read-out: Estimated IC50, OATP1B1
[8] = target: OATP1B3 (Homo sapiens, UniProt Q9NPD5); assay: Inhibitor of OATP1B3, probe substrate uptake; details: for potency estimated from few doses: read-out: Estimated IC50, OATP1B3; for Inhibition of OATP1B3 / Inhibitor of OATP1B3: two concentrations per test article
Sequence of OATP1B3 (Q9NPD5 whole entry): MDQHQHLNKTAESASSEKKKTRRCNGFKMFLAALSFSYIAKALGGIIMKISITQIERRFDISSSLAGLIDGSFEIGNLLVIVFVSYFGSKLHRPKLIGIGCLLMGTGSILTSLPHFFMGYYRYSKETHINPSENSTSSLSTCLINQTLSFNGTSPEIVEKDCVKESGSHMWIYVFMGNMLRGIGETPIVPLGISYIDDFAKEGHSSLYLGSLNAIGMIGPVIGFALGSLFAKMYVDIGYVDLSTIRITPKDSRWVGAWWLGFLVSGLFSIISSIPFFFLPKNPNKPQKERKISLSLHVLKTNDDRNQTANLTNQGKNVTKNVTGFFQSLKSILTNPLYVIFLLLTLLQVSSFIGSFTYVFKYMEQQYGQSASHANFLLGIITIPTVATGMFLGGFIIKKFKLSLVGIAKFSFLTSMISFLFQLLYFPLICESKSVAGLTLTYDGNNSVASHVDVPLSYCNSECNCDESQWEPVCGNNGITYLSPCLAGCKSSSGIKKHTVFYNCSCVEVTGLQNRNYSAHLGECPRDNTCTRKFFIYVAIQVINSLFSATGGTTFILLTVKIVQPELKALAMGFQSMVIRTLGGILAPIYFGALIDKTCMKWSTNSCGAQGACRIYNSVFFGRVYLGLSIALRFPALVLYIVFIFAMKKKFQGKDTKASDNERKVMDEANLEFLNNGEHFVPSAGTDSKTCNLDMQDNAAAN

[9] = system: human hepatocytes; assay: Stability of test articles in hepatocyte cultures; details: two concentrations
[10] = target: T4, BCRP (Homo sapiens, UniProt Q9UNQ0); assay: Substrate of BCRP (Caco-2 cells, selective inhibitor)
T4 sequence (Q9UNQ0 1-655): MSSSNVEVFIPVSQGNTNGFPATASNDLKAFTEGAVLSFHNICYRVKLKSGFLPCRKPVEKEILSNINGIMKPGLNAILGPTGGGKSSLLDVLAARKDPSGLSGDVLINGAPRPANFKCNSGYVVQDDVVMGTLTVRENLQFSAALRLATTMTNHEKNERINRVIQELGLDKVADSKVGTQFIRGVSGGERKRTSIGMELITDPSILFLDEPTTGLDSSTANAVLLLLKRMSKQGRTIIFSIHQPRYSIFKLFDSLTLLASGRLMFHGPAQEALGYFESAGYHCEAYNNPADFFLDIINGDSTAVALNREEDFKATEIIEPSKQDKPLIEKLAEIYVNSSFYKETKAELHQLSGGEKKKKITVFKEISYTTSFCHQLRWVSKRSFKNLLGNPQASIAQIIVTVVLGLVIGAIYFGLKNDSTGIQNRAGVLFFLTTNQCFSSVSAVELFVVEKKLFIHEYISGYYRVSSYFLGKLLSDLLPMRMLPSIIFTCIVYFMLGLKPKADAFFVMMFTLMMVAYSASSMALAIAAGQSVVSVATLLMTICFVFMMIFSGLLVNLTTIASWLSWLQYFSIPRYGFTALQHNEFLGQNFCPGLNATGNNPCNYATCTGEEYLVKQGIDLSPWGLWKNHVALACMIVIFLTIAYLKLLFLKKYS

[11] = system: human hepatocytes; assay: Cytotoxicity of six test articles in hepatocyte cultures (MTS); details: for Concentrations at which not hepatotoxic: Donor 1, 72±2 hours
[12] = target: T2, OAT3; assay: Substrate of OAT3, uptake in HEK293 cells
Source text: as §1

[13] = target: T3, OCT1; assay: Substrate of OCT1, uptake in HEK293 cells
Source text: as §1

[14] = estimated from two concentrations
[15] = test article 1 and 10 μM, Caco-2 cells
[16] = 1 and 10 μM, transport buffer alone

T1 sequence (Q9Y6L6 whole entry): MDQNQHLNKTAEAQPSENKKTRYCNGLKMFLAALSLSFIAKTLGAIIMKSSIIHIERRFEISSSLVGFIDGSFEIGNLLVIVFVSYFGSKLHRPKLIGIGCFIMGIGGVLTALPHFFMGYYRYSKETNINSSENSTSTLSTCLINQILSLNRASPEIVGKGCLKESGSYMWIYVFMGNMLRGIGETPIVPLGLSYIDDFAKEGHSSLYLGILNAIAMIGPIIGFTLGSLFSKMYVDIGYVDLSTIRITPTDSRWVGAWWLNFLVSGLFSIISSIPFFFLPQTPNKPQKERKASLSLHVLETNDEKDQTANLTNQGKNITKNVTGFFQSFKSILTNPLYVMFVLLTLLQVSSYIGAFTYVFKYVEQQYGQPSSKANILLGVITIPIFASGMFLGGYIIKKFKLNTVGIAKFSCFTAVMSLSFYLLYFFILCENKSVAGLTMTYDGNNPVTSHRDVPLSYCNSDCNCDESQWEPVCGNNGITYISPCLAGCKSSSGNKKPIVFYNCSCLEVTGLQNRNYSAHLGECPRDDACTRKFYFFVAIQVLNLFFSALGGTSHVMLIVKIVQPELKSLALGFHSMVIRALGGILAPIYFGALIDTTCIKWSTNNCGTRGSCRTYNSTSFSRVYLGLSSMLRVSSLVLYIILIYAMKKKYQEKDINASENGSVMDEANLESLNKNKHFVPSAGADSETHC

C[C@H](CCC(=O)NCC(=O)O)[C@H]1CC[C@H]2[C@@H]3[C@@H](O)C[C@@H]4C[C@H](O)CC[C@]4(C)[C@H]3CC[C@]12C [Glycoursodeoxycholic acid, glycoursodeoxycholic acid]
Fold uptake by OATP1B1 over vector control ([1]; human, 5 min, 10 μM): 7.56 fold
Fold uptake by OATP1B1 over vector control with known inhibitors ([1]; human, 5 min, 10 μM): 1.80 fold
Permeability in Caco-2 cell assay [2]: moderate permeability
Papp A→B [3]: ≥ 2.4 ×10⁻⁶ cm/s
Papp B→A [3]: ≥ 6.84 ×10⁻⁶ cm/s
efflux ratio at 1 μM [3]: 1.86
efflux ratio at 10 μM [3]: 2.85
recovery [3]: ≥ 75%
Substrate of BSEP [4]: Yes
Uptake activity remaining, OAT3 ([5]; 100 μM): 24.5%
potency estimated from few doses [5, 14]: < 100 µM
Inhibition of OAT3 [5]: inhibited
Inhibitor of OAT3 [5]: Yes
Inhibition of OCT1 [6]: did not inhibit
Inhibitor of OCT1 [6]: No
Uptake activity remaining, OATP1B1 ([7]; 10 μM): 50.4%
Uptake activity remaining, OATP1B1 ([7]; 100 μM): 1.68%
Inhibition of OATP1B1 [7]: inhibited
Inhibitor of OATP1B1 [7]: Yes
Uptake activity remaining, OATP1B3 ([8]; 100 μM): 10.6%
potency estimated from few doses [8, 14]: < 100 µM
Inhibition of OATP1B3 [8]: inhibited
Inhibitor of OATP1B3 [8]: Yes
% of time zero remaining in hepatocyte cultures ([9]; 1 hour): ≤ 88.8%
% of time zero remaining in hepatocyte cultures ([9]; 4 hours): ≤ 75.4%
% of time zero remaining in hepatocyte cultures ([9]; 24 hours): ≤ 34.7%
Efflux remaining with Ko143 ([10]; Caco-2): < 18.8%
Substrate of BCRP ([10]; Caco-2, 1 and 10 μM): as a substrate
Substrate of BCRP [10, 15]: Yes
Concentrations at which not hepatotoxic [11]: ≤ 100 µM

tauroursodeoxycholic acid [TUDCA]
Uptake by OAT3 ([12]; 1 and 10 μM): ≥ 9.27 pmol/minute/mg protein
Substrate of OAT3 ([12]; test article 1 and 10 μM): Yes
Substrate of OCT1 ([13]; 1 and 10 μM): not a substrate
Substrate of OCT1 ([13]; test article 1 and 10 μM): No
Substrate of OATP1B1 ([1]; 1 and 10 μM): not a substrate
Substrate of OATP1B1 ([1]; test article 1 and 10 μM): No
Papp basolateral to apical ([2]; 1 μM): 8.17 ×10⁻⁶ cm/s
Papp apical to basolateral ([2]; 10 μM): 2.43 ×10⁻⁶ cm/s
Papp basolateral to apical ([2]; 10 μM): 3.6 ×10⁻⁶ cm/s
Permeability in Caco-2 cell assay [2]: moderate in both directions
Substrate of BSEP [4]: Yes
potency estimated from few doses [5, 14]: > 50 µM
potency estimated from few doses ([5]; estimated from two doses): > 50 µM
Inhibition of OAT3 [5]: inhibited
Inhibitor of OAT3 [5]: Yes
Inhibition of OCT1 [6]: did not inhibit
Inhibitor of OCT1 [6]: No
Uptake activity remaining, OATP1B1 ([7]; 50 μM): roughly 18%
potency estimated from few doses [7, 14]: < 50 µM
potency estimated from few doses ([7]; estimated from two doses): < 50 µM
Inhibition of OATP1B1 [7]: inhibited
Inhibitor of OATP1B1 [7]: Yes
Uptake activity remaining, OATP1B3 ([8]; 50 μM): roughly 18%
potency estimated from few doses [8, 14]: < 50 µM
potency estimated from few doses ([8]; estimated from two doses): < 50 µM
Inhibition of OATP1B3 [8]: inhibited
Inhibitor of OATP1B3 [8]: Yes
% of time zero remaining in hepatocyte cultures ([9]; 1 hour): ≤ 79.9%
% of time zero remaining in hepatocyte cultures ([9]; 4 hours): ≤ 75.9%
% of time zero remaining in hepatocyte cultures ([9]; 24 hours): ≤ 23.5%
Substrate of BCRP ([10]; Caco-2, 1 and 10 μM): as a substrate
Substrate of BCRP [10, 15]: Yes
Concentrations at which not hepatotoxic [11]: 550 µM

O=C(O)CCCc1ccccc1 [PB, sodium phenylbutyrate]
Permeability in Caco-2 cell assay [2]: high permeability
Papp A→B [3]: ≤ 28.9 ×10⁻⁶ cm/s
Papp B→A [3]: 254 ×10⁻⁶ cm/s
Substrate of BSEP [4]: No
Uptake activity remaining, OAT3 ([5]; 25 μM): 44.3%
potency estimated from few doses [5, 14]: < 25 µM
Inhibition of OAT3 [5]: inhibited
Inhibitor of OAT3 [5]: Yes
Inhibition of OCT1 [6]: did not inhibit
Inhibitor of OCT1 [6]: No
Inhibition of OATP1B1 [7]: did not inhibit
Inhibitor of OATP1B1 [7]: No
Inhibition of OATP1B3 [8]: did not inhibit
Inhibitor of OATP1B3 [8]: No
% of time zero remaining in hepatocyte cultures ([9]; 1 hour): ≤ 84.0%
% of time zero remaining in hepatocyte cultures ([9]; 4 hours): ≤ 60.7%
% of time zero remaining in hepatocyte cultures ([9]; 24 hours): 0%
Substrate of BCRP ([10]; Caco-2, 1 and 10 μM): not a substrate
Substrate of BCRP [10, 15]: No
Concentrations at which not hepatotoxic [11]: ≤ 250 µM

ursodeoxycholic acid
Substrate of OAT3 ([12]; 1 and 10 μM): not a substrate
Substrate of OAT3 ([12]; test article 1 and 10 μM): No
Substrate of OCT1 ([13]; 1 and 10 μM): not a substrate
Substrate of OCT1 ([13]; test article 1 and 10 μM): No
Substrate of OATP1B1 ([1]; 1 and 10 μM): not a substrate
Substrate of OATP1B1 ([1]; test article 1 and 10 μM): No
Apparent permeability in both directions ([2]; 1 and 10 μM): > 18 ×10⁻⁶ cm/s
Permeability in Caco-2 cell assay [2]: high in both directions
Papp apical to basolateral [2, 16]: ≥ 18.9 ×10⁻⁶ cm/s
Papp basolateral to apical [2, 16]: ≥ 22.8 ×10⁻⁶ cm/s
Uptake activity remaining, OAT3 ([5]; 50 μM): 27.6%
potency estimated from few doses [5, 14]: < 50 µM
potency estimated from few doses ([5]; estimated from two doses): < 50 µM
Inhibition of OAT3 [5]: inhibited
Inhibitor of OAT3 [5]: Yes
potency estimated from few doses [6, 14]: < 500 µM
potency estimated from few doses ([6]; estimated from two doses): < 500 µM
Inhibition of OCT1 [6]: inhibited
Inhibitor of OCT1 [6]: Yes
Uptake activity remaining, OATP1B1 ([7]; 50 μM): 545.1%
Uptake activity remaining, OATP1B1 ([7]; 500 μM): no uptake activity remaining
potency estimated from few doses [7, 14]: < 50 µM
potency estimated from few doses ([7]; estimated from two doses): < 50 µM
Inhibition of OATP1B1 [7]: inhibited
Inhibitor of OATP1B1 [7]: Yes
Uptake activity remaining, OATP1B3 ([8]; 50 μM): 545.1%
Uptake activity remaining, OATP1B3 ([8]; 500 μM): no uptake activity remaining
potency estimated from few doses [8, 14]: < 50 µM
potency estimated from few doses ([8]; estimated from two doses): < 50 µM
Inhibition of OATP1B3 [8]: inhibited
Inhibitor of OATP1B3 [8]: Yes
% of time zero remaining in hepatocyte cultures ([9]; 1 hour): ≤ 93.1%
% of time zero remaining in hepatocyte cultures ([9]; 4 hours): ≤ 61.0%
% of time zero remaining in hepatocyte cultures ([9]; 24 hours): ≤ 2.35%
Substrate of BCRP ([10]; Caco-2, 1 and 10 μM): not a substrate
Substrate of BCRP [10, 15]: No
Effect on cell viability ([11]; Donor 1, 500 μM): affected cell viability
Concentrations at which not hepatotoxic [11]: ≤ 250 µM
